Data as given in patent US10704076B2, “Multi-tiered high through-put screen for compounds effective against bacterial biofilm and compounds effective for inhibiting and eradicating bacterial biofilm” (University of Cincinnati, priority 2013, dated 2020).

Tests used:
A. baumannii biofilm [1] = assay: HTS live biofilm assay (resazurin metabolic activity); type: cell-based, Acinetobacter baumannii; settings: for AC50: Acinetobacter baumannii, 10 point dose-response 0.1-50 μM
Excerpt: (§1) Each HTS tier consisted of: (i) primary screening, (ii) confirmation screening and (iii) dose-response curve screening. Each tier of HTS included three distinct biological process assays. The first assay was an optical density measurement of bacteria growth in the presence of each compound reported as a total bacteria growth. In the second assay, resazurin solution was used as an indicator of metabolic activity to measure the live bacteria in the biofilms, reported as live biofilm. The final assay was crystal violet staining, which indicated the amount of biofilm formation and the effect of each compound on this process, reported as total biofilm formation.
(§2) Briefly, stationary phase bacteria grown in L-broth were diluted 1:200 into fresh L-broth and 50 μM of each test compound. After 20-24 hours, the optical density (OD560) of each suspension was measured using Zeiss Plate::Vision with a 560 BP filter (560 nm, 2.5% light intensity, 1 mm focus to bottom of plate, and exposure time of 100 ms). To measure bacterial viability in the biofilm, 50 μl of a 5 mg/ml resazurin solution in L-broth was added to each well after washing 3 times with 50 μl of PBS. The plates were then incubated at 37° C. for 30 or 180 min for A. baumannii and P. aeruginosa biofilms, respectively. Fluorescence was measured using Zeiss Plate::Vision at excitation and emission wavelengths of 535 and 580 nm, 100 ms exposure time, 2.5% intensity and a 2 mm focus to the bottom of the biofilms. To assess biofilm formation, plates were washed 3 times with PBS and then 50 μl of 0.01% of crystal violet was added to each well to assess bacterial biofilm formation as described in a similar borosilicate tube assay by O'Toole and Kolter. After incubation at room temperature for 30 min and removal of the crystal violet solution by washing with PBS, 95% ethanol was added to solubilize the crystal violet followed by incubation for 20 min at room temperature. Finally, the optical density of each plate was determined using measured by Zeiss Plate::Vision using the same settings used to measure total bacterial growth. These 3 steps were used in each of the three tiers for the HTS process: (i) single point primary screening at 10 μM, (ii) triplicate confirmation of hits from (i) at 10 μM and (iii) determination of AC50 values in 10 point dose-response at a concentration range of 0.1-50 μM) in hits from (ii). The AC50 represents the concentration of compound that inhibits 50% of bacterial growth, bacterial viability, or biofilm formation. Genedata Screener® Assay Analyzer Software (Ver. 9.0.0 Standard) was used to analyze data from all assay tiers. Compounds with an AC50 of less than 20 μM in one of the biological assays from the dose response screen were subject to additional investigation.

S. epidermidis biofilm = assay: HTS total biofilm formation assay (crystal violet staining); type: cell-based; settings: Staphylococcus epidermidis, dose-response
Excerpt: as §1, §2

P. aeruginosa biofilm = assay: CLSM, co-culture of bacteria with compound (inhibition of biofilm formation); type: cell-based, Pseudomonas aeruginosa; settings: for killing of residential bacteria, co-culture (CLSM, in words): 10 μM; for Co-culture of bacteria with compound: Killing: Y / —
Procedure: (§3) Broad spectrum agents (effective against all three bacterial species) and single agent compounds identified as HTS hits were investigated with CLSM confirmation of inhibition of biofilm formation (culture of bacteria with compounds) or killing of bacteria residing within an established biofilm (compound addition after culturing biofilm). To evaluate inhibition of P. aeruginosa biofilms, bacteria were sub-cultured into 10% L-broth and grown at 37° C. until the OD600 reached 0.25. The bacteria were further diluted 1:100 into a modified 0.5×M63 minimum media (50 mM KH2PO4, 7.5 mM (NH4)2SO4, 9 μM FeSO4, 0.5% casamino acids, 0.2% glucose, and 1 mM MgSO4). A. baumannii biofilms were also grown in 10% L-broth until the OD600 reached 0.05 but diluted 1:10 into 5% L-broth media. S. epidermidis biofilm cultures were grown. Briefly, the bacteria were grown in TSB until the OD600 reached 0.75, and a 1:100 dilution of the bacteria was sub-cultured into phosphate buffered saline (PBS). All of the biofilm bacterial cultures were grown in 96-well plate chambers (MatTek Corp., Ashland, Mass.) in the presence of 10 μM of each compound or DMSO as a control and incubated for 18 hrs at 37° C. To investigate the ability of compounds to kill bacteria within pre-existing biofilms, biofilms were grown under the same conditions, but without test compound. These biofilms were washed once with PBS and incubated an additional 24 hr at 37° C. in PBS containing 300 μM of each compound. All biofilm cultures were then washed twice with 100 μL of PBS and stained using the LIVE/DEAD® BacLight™ Bacterial Viability Kit (Invitrogen). Finally, biofilm images were obtained using a Zeiss LSM510 META Confocal Microscope (Carl Zeiss, Inc., Germany). A 488 nm laser was used in conjunction with a Plan-Apochromat 100×/1.4 Oil DIC objective. Z-stacks were 8 bit and measured 127.3 μm×127.3 μm×16.0 μm in size. The filters used were 505-530 and 620-680 IR, as the excitation and emission wavelengths for red fluorescence are 490 nm and 635 nm, respectively, and 480 nm and 500 nm for green fluorescence. Three dimensional images were generated using the “Projection” ability on LSM Image Browser software (v.1.4.0.121) or Zeiss LSM image browser software version 3.5 (Carl Zeiss, Inc., Germany), and Live/Dead calculations were conducted based upon these images using MacBiophotonics ImageJ following the guidelines in the cell counting guide by C. Labno {Rasband, 1997-2011 #25; Labno, #2} at the University of Chicago Integrated Light Microscopy Core. The thickness of the biofilm was calculated using Comstat software. A hit was defined as a >50% dead to live ratio.
(§4) The CLSM experiment was performed in one or two or all bacteria used in this study depending on its activity. For the validation of HTS hits, 10 μM of compound was added to each bacterial suspension and the resulting biofilm stained with LIVE/DEAD® BacLight™ Bacterial Viability Kit. The images were analyzed to determine the live and dead ratios of biofilm bacteria, the thickness of biofilms, and structural attributes of biofilms.

A. baumannii = assay: HTS total bacterial growth assay (optical density OD560); type: cell-based, Acinetobacter baumannii; settings: for AC50: Acinetobacter baumannii, 10 point dose-response 0.1-50 μM, NS* = no sigmoid curve observed, read-out: Total Bacteria Growth AC50
Excerpt: as §1, §2

P. aeruginosa = assay: as above; type: cell-based, Pseudomonas aeruginosa; settings: for AC50: Pseudomonas aeruginosa, 10 point dose-response 0.1-50 μM, read-out: Total Bacteria Growth AC50
Excerpt: as §1, §2

S. epidermidis = assay: as above; type: cell-based; settings: Staphylococcus epidermidis, dose-response, read-out: Total Bacteria Growth AC50
Excerpt: as §1, §2

A. baumannii biofilm [2] = assay: HTS total biofilm formation assay (crystal violet staining); type: cell-based, Acinetobacter baumannii; settings: for AC50: Acinetobacter baumannii, 10 point dose-response 0.1-50 μM
Excerpt: as §1, §2

A. baumannii biofilm [3] = assay: CLSM, co-culture of bacteria with compound (inhibition of biofilm formation); type: cell-based, Acinetobacter baumannii; settings: for killing of residential bacteria, co-culture (CLSM, in words): 10 μM; for Co-culture of bacteria with compound: Killing: Y / —
Procedure: as §3, §4

SMILES | AC50 (A. baumannii biofilm [1]) | AC50 (S. epidermidis biofilm) | killing of residential bacteria, co-culture (CLSM, in words) (P. aeruginosa biofilm) | Co-culture of bacteria with compound: Killing (P. aeruginosa biofilm; CLSM, 10 μM compound, 18 hrs) | AC50 (A. baumannii) | AC50 (P. aeruginosa) | AC50 (S. epidermidis) | AC50 (A. baumannii biofilm [2]) | killing of residential bacteria, co-culture (CLSM, in words) (A. baumannii biofilm [3]) | Co-culture of bacteria with compound: Killing (A. baumannii biofilm [3]; CLSM, 10 μM compound, 18 hrs) | HTS assay results: Live Bacteria (A. baumannii biofilm [1]; Y / —) | HTS assay results: Total Bacteria growth (A. baumannii; Y / —) | HTS assay results: Total Bacteria growth (P. aeruginosa; Y / —) | HTS assay results: Biofilm Formation (A. baumannii biofilm [2]; Y / —) | Co-culture of bacteria with compound: Inhibit biofilm formation (P. aeruginosa biofilm; CLSM, 10 μM compound, 18 hrs) | Co-culture of bacteria with compound: Inhibit biofilm formation (A. baumannii biofilm [3]; CLSM, 10 μM compound, 18 hrs)
NC(=S)N1CCN(c2cc3c(cc2F)c(=O)c(C(=O)O)cn3C2CC2)CC1 [Compound 7, 7-(4-carbamothioylpiperazin-1-yl)-1-cyclopropyl-6-fluoro-4-oxoquinoline-3-carboxylic acid] | 8.45 µM | 1.12 µM | killed residential bacteria | Y (A hit was defined as a >50% dead to live ratio) | 12.1 µM | 3 µM | 2.2 µM | 17.7 µM | killed residential bacteria | Y (A hit was defined as a >50% dead to live ratio) | – | – | – | – | – | –
Cn1sc(Cl)c(C#N)c1=O [Compound 3, 5-chloro-2-methyl-3-oxo-1,2-thiazole-4-carbonitrile] | 4.04 µM | 8.84 µM | killed residential bacteria | Y (A hit was defined as a >50% dead to live ratio) | 2.93 µM | 9.27 µM | 8.89 µM | 4.45 µM | killed residential bacteria | Y (A hit was defined as a >50% dead to live ratio) | – | – | – | – | – | –
O=C(O)c1cn(C2CC2)c2c(F)c(N3CC(O)C3)c(F)cc2c1=O [Compound 8, 1-cyclopropyl-6,8-difluoro-7-(3-hydroxyazetidin-1-yl)-4-oxoquinoline-3-carboxylic acid] | 2.33 µM | < 0.1 µM | – | – | 3.44 µM | 44.4 µM | < 0.1 µM | – | killed residential bacteria | Y (A hit was defined as a >50% dead to live ratio) | —* (AC50 higher than 20 μM) | —* (AC50 higher than 20 μM) | —* (AC50 higher than 20 μM) | —* (AC50 higher than 20 μM) | – | –
O=C(O)c1cn(C2CC2)c2c(F)c(-c3ccncc3)c(F)cc2c1=O [Compound 11, 7-(4-pyridyl)-1-cyclopropyl-6,8-difluoro-4-oxoquinoline-3-carboxylic acid] | 0.61 µM | < 0.1 µM | – | – | 0.66 µM | 16 µM | < 0.1 µM | 0.85 µM | – | – | – | – | – | – | no effect | inhibited biofilm formation
